This is an account of results in publication PMC7661129, “Evaluation of Binding of Rosmarinic Acid with Human Transferrin and Its Impact on the Protein Structure: Targeting Polyphenolic Acid-Induced Protection of Neurodegenerative Disorders” (Oxidative Medicine and Cellular Longevity, 2020).

For experiment [1], the target named is T1, Human transferrin (hTf) (Homo sapiens, UniProt P02787).
T1 construct: gene TF
Briefly: isothermal titration calorimetry (VP-ITC). The settings on record: 25 °C; 20 mM sodium phosphate pH 7.4; four-site fit, first site; large fit error, Ka4 printed negative; unreliable. Format: binding. For orientation: ITC needs no label: the signal is the heat of the interaction.

Experiment [2] addresses T1, Human transferrin (hTf). Briefly: intrinsic fluorescence quenching, modified Stern-Volmer. The settings on record: 301 K; 20 mM sodium phosphate pH 7.4; n = 1.25; double-log. Format: binding. From the text:
intrinsic fluorescence quenching, modified Stern-Volmer on Human transferrin (hTf)

T1 sequence (P02787 20-698): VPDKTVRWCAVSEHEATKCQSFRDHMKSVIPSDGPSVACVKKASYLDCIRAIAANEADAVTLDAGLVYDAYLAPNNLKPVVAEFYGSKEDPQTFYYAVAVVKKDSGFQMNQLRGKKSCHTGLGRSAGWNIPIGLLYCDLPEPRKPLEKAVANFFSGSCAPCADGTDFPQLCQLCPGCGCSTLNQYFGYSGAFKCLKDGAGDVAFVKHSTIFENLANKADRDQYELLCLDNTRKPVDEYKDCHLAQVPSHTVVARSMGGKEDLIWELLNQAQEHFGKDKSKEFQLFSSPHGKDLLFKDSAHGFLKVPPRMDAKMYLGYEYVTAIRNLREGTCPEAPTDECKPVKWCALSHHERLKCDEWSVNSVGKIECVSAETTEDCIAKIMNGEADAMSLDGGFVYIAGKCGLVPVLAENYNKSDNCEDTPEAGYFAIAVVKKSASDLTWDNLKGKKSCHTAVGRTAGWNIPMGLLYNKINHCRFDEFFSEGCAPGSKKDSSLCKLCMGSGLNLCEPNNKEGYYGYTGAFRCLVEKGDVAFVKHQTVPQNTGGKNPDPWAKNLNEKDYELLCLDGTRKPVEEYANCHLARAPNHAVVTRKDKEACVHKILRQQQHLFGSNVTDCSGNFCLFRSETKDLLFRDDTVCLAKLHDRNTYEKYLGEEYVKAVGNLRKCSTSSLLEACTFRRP

Compound `O=C(/C=C/c1ccc(O)c(O)c1)O[C@H](Cc1ccc(O)c(O)c1)C(=O)O` [Rosmarinic acid] yielded a Ka1 on Human transferrin (hTf) [1] of 115000 ± 81000 M⁻¹. Further, the “K (10^7 M^-1)” value at Human transferrin (hTf) [2] is 0.107 × 10^7 M^-1.
